molecular target: Beta-2 adrenergic receptor (Homo sapiens) (UniProt P07550); test: beta2AR agonists driving receptor internalization, dose response, cell-based, FAP fluorogen, flow cytometry, powder set 4 (AID 651872); settings: AM2.2-beta2AR cells, 90 min
Sequence (P07550 whole entry, looked up): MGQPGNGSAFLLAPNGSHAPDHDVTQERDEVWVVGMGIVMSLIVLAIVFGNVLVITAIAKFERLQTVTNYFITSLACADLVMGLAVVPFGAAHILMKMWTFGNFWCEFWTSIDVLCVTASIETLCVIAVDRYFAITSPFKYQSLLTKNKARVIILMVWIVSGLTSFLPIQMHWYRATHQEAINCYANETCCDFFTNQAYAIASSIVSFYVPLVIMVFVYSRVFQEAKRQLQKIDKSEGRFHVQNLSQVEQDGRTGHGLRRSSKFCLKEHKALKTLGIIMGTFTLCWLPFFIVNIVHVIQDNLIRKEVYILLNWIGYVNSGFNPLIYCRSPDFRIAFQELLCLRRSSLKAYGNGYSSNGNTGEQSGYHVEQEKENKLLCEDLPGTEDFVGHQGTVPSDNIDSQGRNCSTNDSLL

Structure (SMILES)	EC50
COc1ccccc1N1CCN(C(=O)CN(C)S(=O)(=O)c2ccc(C)cc2)CC1	676 nM
CN(CC(=O)N1CCN(c2cccc(C(F)(F)F)c2)CC1)S(=O)(=O)c1ccc(F)cc1	9640 nM
Cc1ccc(S(=O)(=O)N(C)CC(=O)N2CCN(c3ccccn3)CC2)cc1	1.6 nM
CC(=O)Nc1ccc(S(=O)(=O)N2CCCCC2c2cccnc2)cc1 (stereo unspecified)	10.5 nM
O=C(C1CCC(=O)N1S(=O)(=O)c1ccccc1)N1CCN(c2ccccn2)CC1 (stereo unspecified)	26.2 nM
O=C(CN(Cc1ccccc1)S(=O)(=O)c1ccc(Cl)cc1)N1CCN(c2ccccn2)CC1	208 nM
